In ChEMBL document CHEMBL1129700, “Utilization of wieland furoxan synthesis for preparation of 4-aryl-1,2,5-oxadiazole-3-yl carbamate derivatives having potent anti-HIV activity” (Bioorg Med Chem Lett, 1996):

Key:
[1] = Selectivity index based on the ratio of CC50 to EC50; format: functional
MT4 [2] = test: Tested for 50% effective concentration based on the inhibition of HIV-I induced cytopathic effect in MT-4 cells; format: functional, cell-based; details: Homo sapiens
MT4 [3] = test: Tested for 50% cytotoxic concentration based on the reduction of viability in mock-infected MT-4 cells; format: functional; details: Homo sapiens

SMILES | SI [1] | EC50 (MT4 [2]) [µM] | CC50 (MT4 [3]) [µM]
CCCN(C)C(=O)Oc1nsnc1-c1c(Cl)cccc1Cl | 10000 | – | –
CCCN(C)C(=O)Oc1no[n+]([O-])c1-c1c(Cl)cccc1Cl | 72 | 0.12 | 8.6
CCCN(C)C(=O)Oc1nonc1-c1ccccc1 | 6.5 | 2 | 13
CN(C)C(=O)Oc1nsnc1-c1ccccc1 | 8 | 5.6 | 46.8
Cc1cn([C@H]2C[C@H](N=[N+]=[N-])[C@@H](CO)O2)c(=O)[nH]c1=O [ZIDOVUDINE] | 800 | 0.004 | 3.2
CCCN(C)C(=O)Oc1no[n+]([O-])c1-c1ccccc1 | 1 | 20 | 25
